Measurements reported in ChEMBL document CHEMBL1201862, “PubChem BioAssay data set” (2004).
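Test compounds were applied to cells in 96-well plates for 48 hours at 5 doses. Abbreviation: GI50, concentration required for 50% inhibition of growth.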 Activity calls are given as the source filed them. No stated cut-off is given here; in the data, active = GI50 up to about 1.1 µM and inactive = higher.

What was measured:
Assay in all cases: growth of human tumour cells (NCI), 48 h
A498 = system: A498
BT-549 = system: BT-549
COLO 205 = system: COLO 205
HCT-15 = system: HCT-15
Hs-578T = system: Hs-578T
KM12 = system: KM12
M14 = system: M14
Malme-3M = system: Malme-3M
NCI-H226 = system: NCI-H226
OVCAR-4 = system: OVCAR-4
PC-3 = system: PC-3
SF-268 = system: SF-268
SK-MEL-2 = system: SK-MEL-2
SNB-75 = system: SNB-75
SR = system: SR
SW-620 = system: SW-620
T47D = system: T47D
TK-10 = system: TK-10
OVCAR-3 = system: OVCAR-3

Measured: GI50

COc1cc2c(c(OC)c1OC)-c1ccc(SC)c(=O)cc1[C@@H](O)CC2
active: A498 0.0305 µM | BT-549 0.00168 µM | COLO 205 0.000408 µM | Hs-578T 0.000261 µM | KM12 0.000234 µM | M14 0.000333 µM | Malme-3M 0.00021 µM | NCI-H226 0.000703 µM | OVCAR-4 > 1 µM | PC-3 0.000353 µM | SF-268 0.00128 µM | SK-MEL-2 0.00367 µM | SNB-75 0.01 µM | SR 0.00258 µM | SW-620 0.000333 µM | T47D > 1 µM | TK-10 > 1 µM
0.000605 µM: HCT-15

NC(=O)c1cnc2sc3ccccc3n2c1=O
> 100 µM: HCT-15
inactive: BT-549 > 100 µM | COLO 205 > 100 µM | Hs-578T 26.4 µM | KM12 > 100 µM | M14 > 100 µM | Malme-3M > 100 µM | NCI-H226 34.5 µM | OVCAR-3 > 100 µM | OVCAR-4 > 100 µM | PC-3 > 100 µM | SF-268 > 100 µM | SK-MEL-2 > 100 µM | SNB-75 > 100 µM | SR > 100 µM | SW-620 > 100 µM | T47D > 100 µM | TK-10 > 100 µM

Cc1cnc2c(c1)C(=O)N(c1ccc(Oc3ccccc3)cc1)S2(=O)=O
inactive: BT-549 > 100 µM | COLO 205 > 100 µM | Hs-578T > 100 µM | KM12 > 100 µM | M14 > 100 µM | Malme-3M 67.1 µM | NCI-H226 59.6 µM | OVCAR-3 > 100 µM | OVCAR-4 83.8 µM | PC-3 > 100 µM | SF-268 > 100 µM | SK-MEL-2 > 100 µM | SNB-75 > 100 µM | SR > 100 µM | SW-620 > 100 µM | T47D > 100 µM | TK-10 > 100 µM
> 100 µM: HCT-15

CC(C)CCCC(=O)CCCCCCC(=O)CCN(O)C(=O)C(N)CO (configuration not stated)
15.3 µM: HCT-15
inactive: A498 16.3 µM | BT-549 14.7 µM | COLO 205 23.7 µM | Hs-578T 28.5 µM | KM12 17.6 µM | M14 20.2 µM | Malme-3M 13.7 µM | NCI-H226 14 µM | OVCAR-3 17.3 µM | PC-3 12.6 µM | SF-268 26.2 µM | SK-MEL-2 17.1 µM | SNB-75 10.8 µM | SW-620 30.3 µM | T47D 13.8 µM | TK-10 14.7 µM

C[N+](C)(C)c1ncnc2c1ncn2C1CCCCO1 (configuration not stated)
inactive: A498 > 100 µM | BT-549 > 100 µM | COLO 205 > 100 µM | Hs-578T > 100 µM | KM12 > 100 µM | M14 > 100 µM | Malme-3M > 100 µM | OVCAR-3 > 100 µM | OVCAR-4 > 100 µM | PC-3 > 100 µM | SF-268 > 100 µM | SK-MEL-2 > 100 µM | SNB-75 > 100 µM | SR > 100 µM | SW-620 > 100 µM | T47D > 100 µM | TK-10 > 100 µM

COC1CC(OC2C(C)OC(OC3C(C)OC(OC4C(C)OC(O[C@H]5CC[C@@]6(C)C(=CC[C@]7(O)[C@@H]6C[C@@H](OC(=O)/C=C/c6ccccc6)[C@@]6(C)[C@]7(O)CC[C@@]6(O)C(C)=O)C5)CC4OC)CC3OC)CC2OC)OC(C)C1O (some centres not stated)
> 12.5 µM: HCT-15
inactive: BT-549 > 12.5 µM | COLO 205 > 12.5 µM | Hs-578T > 12.5 µM | KM12 10.1 µM | M14 > 12.5 µM | Malme-3M > 12.5 µM | NCI-H226 > 12.5 µM | OVCAR-3 11 µM | OVCAR-4 > 12.5 µM | PC-3 > 12.5 µM | SF-268 > 12.5 µM | SK-MEL-2 > 12.5 µM | SNB-75 > 12.5 µM | SR > 12.5 µM | SW-620 > 12.5 µM | T47D > 12.5 µM | TK-10 > 12.5 µM

CCOC(=O)/C(=N\OC)C(O)C(F)(F)F (configuration not stated)
inactive: A498 > 100 µM | BT-549 > 100 µM | COLO 205 > 100 µM | Hs-578T > 100 µM | KM12 > 100 µM | M14 > 100 µM | Malme-3M > 100 µM | NCI-H226 > 100 µM | PC-3 > 100 µM | SF-268 > 100 µM | SK-MEL-2 > 100 µM | SNB-75 > 100 µM | SR > 100 µM | SW-620 > 100 µM | T47D > 100 µM | TK-10 > 100 µM
> 100 µM: HCT-15

CCOC(=O)CC/C(C)=N\n1c(Cc2ccc(Cl)cc2)n[nH]c1=O
> 100 µM: HCT-15
inactive: BT-549 > 100 µM | Hs-578T > 100 µM | KM12 > 100 µM | M14 > 100 µM | Malme-3M > 100 µM | NCI-H226 > 100 µM | OVCAR-3 > 100 µM | PC-3 > 100 µM | SF-268 > 100 µM | SK-MEL-2 > 100 µM | SNB-75 > 100 µM | SR > 100 µM | SW-620 > 100 µM | T47D > 100 µM | TK-10 > 100 µM

Cc1cc(=O)nc(S(=O)(=O)NC(=O)Nc2cccc(Cl)c2)[nH]1
> 100 µM: HCT-15
inactive: A498 > 100 µM | BT-549 > 100 µM | COLO 205 > 100 µM | Hs-578T > 100 µM | KM12 14.7 µM | M14 > 100 µM | Malme-3M > 100 µM | NCI-H226 > 100 µM | OVCAR-3 47.1 µM | PC-3 > 30.5 µM | SF-268 > 100 µM | SK-MEL-2 > 100 µM | SNB-75 49.4 µM | SR > 100 µM | SW-620 > 100 µM | T47D > 88.5 µM | TK-10 > 100 µM

O=C1N/C(=N\C2CCCCC2)C2(CCN(CCCC3(c4ccc(F)cc4)OCCO3)CC2)N1c1ccccc1
inactive: BT-549 4.61 µM | COLO 205 18.5 µM | Hs-578T 14.4 µM | KM12 18 µM | M14 19.4 µM | Malme-3M 16.7 µM | NCI-H226 23.1 µM | OVCAR-3 11.8 µM | OVCAR-4 18.5 µM | PC-3 19.3 µM | SF-268 21.5 µM | SK-MEL-2 16 µM | SNB-75 14.3 µM | SR 13.9 µM | SW-620 21.2 µM | T47D 17 µM | TK-10 15.7 µM
18.1 µM: HCT-15

N#Cc1cc2cc3c4c(c2oc1=O)CCCN4CCC3
> 100 µM: HCT-15
inactive: A498 > 100 µM | BT-549 > 100 µM | COLO 205 > 100 µM | Hs-578T > 100 µM | KM12 > 100 µM | M14 > 100 µM | NCI-H226 > 100 µM | OVCAR-3 > 100 µM | OVCAR-4 > 100 µM | PC-3 > 100 µM | SF-268 > 100 µM | SK-MEL-2 > 100 µM | SNB-75 > 76.4 µM | SR > 100 µM | SW-620 > 100 µM | T47D > 100 µM | TK-10 > 100 µM

OCCNc1nc2c(N3CCCC3)nc(N3CCNCC3)nc2nc1NCc1ccccc1
16.4 µM: HCT-15
inactive: BT-549 16.4 µM | COLO 205 11.7 µM | Hs-578T 20.3 µM | KM12 11.9 µM | M14 15.7 µM | Malme-3M 19.6 µM | NCI-H226 16.3 µM | OVCAR-3 4.92 µM | OVCAR-4 17.3 µM | PC-3 16.9 µM | SF-268 16.9 µM | SK-MEL-2 15 µM | SNB-75 13.3 µM | SR 13.3 µM | SW-620 19.1 µM | T47D 12.5 µM | TK-10 15 µM

c1ccc(N2N=C3N(c4ccccc4)C2N3c2ccccc2)cc1
42.9 µM: HCT-15
inactive: A498 33.1 µM | BT-549 68.2 µM | COLO 205 19.5 µM | Hs-578T 57.7 µM | KM12 33.7 µM | M14 20.3 µM | Malme-3M 17.5 µM | OVCAR-3 36.6 µM | OVCAR-4 35.6 µM | PC-3 44.5 µM | SF-268 52.8 µM | SK-MEL-2 24.3 µM | SNB-75 17.8 µM | SW-620 33.4 µM | T47D 52.4 µM | TK-10 71.3 µM

CCCCCCCCCCCCCCCCOP(=O)(O)OCC(NC(C)=O)C(=O)O (configuration not stated)
18.2 µM: HCT-15
inactive: A498 32.4 µM | BT-549 18.8 µM | COLO 205 > 100 µM | Hs-578T 27.9 µM | M14 > 100 µM | Malme-3M > 100 µM | NCI-H226 76 µM | OVCAR-3 98.2 µM | OVCAR-4 25.9 µM | PC-3 18 µM | SF-268 31 µM | SK-MEL-2 > 100 µM | SNB-75 20 µM | SR 73.8 µM | SW-620 > 100 µM | T47D > 100 µM | TK-10 23.7 µM

C/C=C/C(O)P1(=O)N(Cc2ccccc2)[C@@H]2CCCC[C@H]2N1Cc1ccccc1 (some centres not stated)
> 25 µM: HCT-15
inactive: BT-549 > 25 µM | COLO 205 > 25 µM | Hs-578T > 25 µM | KM12 > 25 µM | M14 > 25 µM | Malme-3M > 25 µM | NCI-H226 > 25 µM | OVCAR-3 > 25 µM | OVCAR-4 > 25 µM | PC-3 > 25 µM | SF-268 > 25 µM | SK-MEL-2 > 25 µM | SNB-75 > 25 µM | SR > 25 µM | SW-620 > 25 µM | T47D > 25 µM | TK-10 > 25 µM

CC(=O)O[C@H]1CCn2c3c(c(C)c21)C(=O)C(N1CC1)=C(C)C3=O
> 10 µM: HCT-15
inactive: BT-549 > 10 µM | COLO 205 6.12 µM | Hs-578T > 10 µM | KM12 > 10 µM | M14 > 10 µM | Malme-3M > 10 µM | NCI-H226 > 10 µM | OVCAR-3 > 10 µM | OVCAR-4 > 10 µM | PC-3 > 10 µM | SF-268 > 10 µM | SK-MEL-2 > 10 µM | SNB-75 8.51 µM | SR > 10 µM | SW-620 > 10 µM | T47D > 10 µM | TK-10 > 10 µM
